Results taken from ChEMBL document CHEMBL3784949 (Psychopharmacology (Berl), 1987).

Key:
[1] = Volume of distribution at steady state in psychotic patient (9 patients) at 3.5 +/- 1.2 mg, iv by reversed phase HPLC method; format: ADME, organism-based; conditions: human, in vivo, 3.5 mg, read-out: Vdss
[2] = Terminal phase volume of distribution at steady state in psychotic patient (9 patients) at 3.5 +/- 1.2 mg, iv by reversed phase HPLC method; format: ADME, organism-based; conditions: human, in vivo, 3.5 mg, read-out: Vbeta
[3] = Unbound fraction in psychotic patient (9 patients) at 3.5 +/- 1.2 mg, iv by reversed phase HPLC method; format: ADME, organism-based; conditions: human, in vivo
[4] = Terminal half life in psychotic patient (9 patients) at 3.5 +/- 1.2 mg, iv by reversed phase HPLC method; format: ADME, organism-based; conditions: human, in vivo, 3.5 mg, read-out: beta t1/2 (converted)
[5] = Terminal phase volume of distribution at steady state in psychotic patient (9 patients) at 3.5 +/- 1.2 mg, iv by reversed phase HPLC method based model-independent approach analysis; format: ADME, organism-based; conditions: human, in vivo, 3.5 mg, read-out: Vbeta
[6] = Unbound fraction in human serum; format: ADME, cell-free
[7] = Terminal half life in psychotic patient (9 patients) at 2.9 +/- 1.2 mg, po by reversed phase HPLC method; format: ADME, organism-based; conditions: human, in vivo, 2.9 mg, read-out: beta t1/2 (converted)
[8] = tested on: Plasma; experiment: Plasma concentration in psychotic patient; format: ADME; conditions: human
[9] = Terminal phase volume of distribution at steady state in psychotic patient (9 patients) at 3.5 +/- 1.2 mg, iv by reversed phase HPLC method based model-dependent approach analysis; format: ADME, organism-based; conditions: human, in vivo, 3.5 mg, read-out: Vbeta

O=C(CCCN1CCC(O)(c2ccc(Cl)cc2)CC1)c1ccc(F)cc1 [HALOPERIDOL]
Vd [1]: 7.9 L/kg
Vd [2]: 9.5 L/kg
Fu [3]: 0.6%
half-life [4]: 18.8 h
Vd [5]: 9.5 L/kg
fraction unbound [6]: 0.08
half-life [7]: 18.1 h
Cp [8]: 5 ng/mL
Vd [9]: 9.6 L/kg
